Measurements reported in patent US20080299590A1, “SHC protein-related methods and compositions” (Roger Williams Hospital, priority 2005, published 2008).

System: breast cancer patients
Assay: Shc Test TMA study: protection by adjuvant tamoxifen or chemotherapy by Shc risk group (multivariate survival models)
Type: in vivo, human
Source text: Materials and Methods: Patient samples included primary invasive tumor specimens from 4,326 British Columbian women in Tumor Micro-Array (TMA) format (no adjuvant therapy=1860; tamoxifen=1366; chemotherapy (AC, CMF, FAC, CEF)=744; relapsed=1752; died of disease=1334, average follow-up 13 yrs). Two additional sources were 65 primary tumor specimens from tamoxifen-only-treated patients (10 recurrences, 6.4 yrs average follow-up) from Roger Williams Medical Center (RWMC), and 32 (14 recurrences) from a published study (Massachusetts General Hospital (MGH)) (Ma et al., Cancer Cell, 5:1-10 (2004)). Immunohistochemistry (IHC) staining of the Shc proteins was scored on a continuous 0-5 scale by two pathologists, blinded to patient clinical data.
Analysis of relapse-free survival (RFS) and disease specific survival (DSS) used multivariate models under assumptions of both log-normality as well as proportionality of hazard rate.

## CC/C(=C(\c1ccccc1)c1ccc(OCCN(C)C)cc1)c1ccccc1 [tamoxifen]
12% of patients classified as high risk by the Shc Test, node positive patients
  hazard ratio (HR) of tamoxifen therapy: 0.26
63% patients in the low risk group by the Shc Test
  benefit from tamoxifen: little benefit
